Results reported in ChEMBL document CHEMBL1201862, “PubChem BioAssay data set” (2004).
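Growth conditions: 96-well plates. Treatment: test compound, 48 hours, 5 concentrations. Analysis: linear interpolation between bracketing concentrations; unreached endpoints set to highest concentration. Here, GI50 denotes the concentration required for 50% inhibition of growth.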 The source made the active and inactive calls. No stated cut-off is given here; in the data, active = GI50 up to about 1.1 µM and inactive = higher.

Columns and labels:
Assay in all cases: NCI-60 cell line screen, 48 h
SK-MEL-5 = system: SK-MEL-5
CAKI-1 = system: CAKI-1
Hs-578T = system: Hs-578T
OVCAR-3 = system: OVCAR-3
MOLT-4 = system: MOLT-4
COLO 205 = system: COLO 205
U-251 = system: U-251
HCT-15 = system: HCT-15
MDA-MB-435 = system: MDA-MB-435
Malme-3M = system: Malme-3M
SF-295 = system: SF-295
HL-60 = system: HL-60
HCC 2998 = system: HCC 2998
SR = system: SR
A549 = system: A549
HCT-116 = system: HCT-116
SW-620 = system: SW-620
SF-539 = system: SF-539
SNB-75 = system: SNB-75

Structure (SMILES) | GI50 (SK-MEL-5) | GI50 (CAKI-1) | GI50 (Hs-578T) | GI50 (OVCAR-3) | GI50 (MOLT-4) | GI50 (COLO 205) | GI50 (U-251) | GI50 (HCT-15) [µM] | GI50 (MDA-MB-435) | GI50 (Malme-3M) | GI50 (SF-295) | GI50 (HL-60) | GI50 (HCC 2998) | GI50 (SR) | GI50 (A549) | GI50 (HCT-116) | GI50 (SW-620) | GI50 (SF-539) | GI50 (SNB-75)
CC(C)(C)OC(=O)NCCCCC1NC(=O)[C@@H]2Cc3c([nH]c4ccccc34)C(C3CCCCC3)N2C1=O (stereo partly drawn) | 33.6 µM (inactive) | 56.6 µM (inactive) | 23.6 µM (inactive) | 10.6 µM (inactive) | 5.28 µM (inactive) | 20.2 µM (inactive) | 31.5 µM (inactive) | 36 | 23.6 µM (inactive) | > 100 µM (inactive) | 19.8 µM (inactive) | 31.1 µM (inactive) | 13.9 µM (inactive) | 15.2 µM (inactive) | 30.5 µM (inactive) | 29.4 µM (inactive) | 61.8 µM (inactive) | – | –
O=C(O)c1cccc(/[As]=[As]\c2cccc(C(=O)O)c2)c1 (stereo not drawn) | 32.7 µM (inactive) | 16.4 µM (inactive) | 33.8 µM (inactive) | 34.4 µM (inactive) | 30.3 µM (inactive) | 33 µM (inactive) | 15.7 µM (inactive) | 36.3 | 52.1 µM (inactive) | 21.4 µM (inactive) | > 100 µM (inactive) | – | 57.7 µM (inactive) | 28.7 µM (inactive) | > 100 µM (inactive) | 36.9 µM (inactive) | 32.7 µM (inactive) | 16.6 µM (inactive) | 21.5 µM (inactive)
CN(C)CCn1c(CO)nc2c1c(=O)n(C)c(=O)n2C | > 100 µM (inactive) | > 100 µM (inactive) | > 100 µM (inactive) | > 100 µM (inactive) | – | > 100 µM (inactive) | > 100 µM (inactive) | > 100 | > 100 µM (inactive) | > 100 µM (inactive) | > 100 µM (inactive) | > 100 µM (inactive) | > 100 µM (inactive) | > 100 µM (inactive) | > 100 µM (inactive) | > 100 µM (inactive) | > 100 µM (inactive) | > 100 µM (inactive) | > 100 µM (inactive)
O=C(Nc1ccccc1C(=O)NCc1ccccc1)/C(=C/c1ccccc1O)NC(=O)c1ccccc1 | > 100 µM (inactive) | > 100 µM (inactive) | 69 µM (inactive) | > 100 µM (inactive) | > 100 µM (inactive) | > 100 µM (inactive) | 52.5 µM (inactive) | 24.7 | 50.7 µM (inactive) | – | 49.9 µM (inactive) | 55.5 µM (inactive) | > 100 µM (inactive) | > 100 µM (inactive) | > 100 µM (inactive) | > 100 µM (inactive) | > 100 µM (inactive) | > 100 µM (inactive) | 19.1 µM (inactive)
C=C1C2CCC3(CCC4C5(C)CCCC4(C=[N+](CCO)C5)C3C2)C1O (stereo not drawn) | > 100 µM (inactive) | > 100 µM (inactive) | > 100 µM (inactive) | > 100 µM (inactive) | – | > 100 µM (inactive) | > 100 µM (inactive) | > 100 | > 100 µM (inactive) | > 100 µM (inactive) | > 100 µM (inactive) | > 100 µM (inactive) | > 100 µM (inactive) | > 100 µM (inactive) | > 100 µM (inactive) | > 100 µM (inactive) | > 100 µM (inactive) | > 100 µM (inactive) | > 100 µM (inactive)
O=C(c1ccccc1)c1ccc(N2C(=O)/C(=C/Cc3ccco3)N=C2c2ccccc2)c(N2C(=O)/C(=C/Cc3ccco3)N=C2c2ccccc2)c1 | 26.1 µM (inactive) | 67.5 µM (inactive) | 25.8 µM (inactive) | 21.6 µM (inactive) | 18.8 µM (inactive) | 38.6 µM (inactive) | 18.8 µM (inactive) | 45 | 29.2 µM (inactive) | – | 30 µM (inactive) | 15.3 µM (inactive) | 36.9 µM (inactive) | 28.6 µM (inactive) | 35.8 µM (inactive) | 40.2 µM (inactive) | 39.8 µM (inactive) | 16.2 µM (inactive) | 28.1 µM (inactive)
O=C(NNC(=S)Nc1ccc(Br)cc1)c1cc(-c2ccccc2)nc2ccccc12 | 15.8 µM (inactive) | 29.8 µM (inactive) | 30.2 µM (inactive) | 17 µM (inactive) | 22.1 µM (inactive) | 22.6 µM (inactive) | 16.2 µM (inactive) | 24 | 17.1 µM (inactive) | 17.3 µM (inactive) | 19.2 µM (inactive) | – | 16.8 µM (inactive) | 20.4 µM (inactive) | 21 µM (inactive) | 16.7 µM (inactive) | 21.2 µM (inactive) | 16.6 µM (inactive) | 29.2 µM (inactive)
COc1ccc(C(=O)Sc2c(-c3ccccc3)c(=O)n(-c3ccccc3)c(=S)n2-c2ccccc2)cc1 | – | > 100 µM (inactive) | > 100 µM (inactive) | 30.5 µM (inactive) | 21.6 µM (inactive) | 39.7 µM (inactive) | 47 µM (inactive) | > 100 | > 100 µM (inactive) | 48.5 µM (inactive) | > 100 µM (inactive) | 60.5 µM (inactive) | > 100 µM (inactive) | 25.4 µM (inactive) | 64.1 µM (inactive) | 29.7 µM (inactive) | > 100 µM (inactive) | 14.2 µM (inactive) | > 100 µM (inactive)
